{"source": "patent US20100227307A1", "about": "“ERGOTHIONEINE AND/OR ITS DERIVATIVES AS A CELL PRESERVATIVE” (priority 2007, published 2010)", "key": {"[1]": {"tested_on": "Stallion named IKE's semen (sperm cells)", "experiment": "Post-thaw motility of frozen stallion semen in five extenders (Sperm Vision analysis)", "assay_type": "cell-based", "settings": "ergothioneine added to traditional semen extender compositions", "protocol": "The resulting sperm pellet was then split 5 ways and resuspended with the five different extenders tested. DMSO and EQUIPRO® cryoguards were frozen right away. […] Semen was frozen using the ice cube freezer. Semen straws were thawed at 37° C. for 1 minute. Semen was diluted at one to ten in EQUIPRO® concentrate to analyze using sperm vision. All five extenders were measured for motility (total motility and forward progressive motility, FPM) using Sperm Vision® software, a high-resolution, rapid scan digital camera on a plain glass slide. Measurements were taken at 0 min post thaw, 30 min and 60 min post thaw."}, "[2]": {"tested_on": "mouse liver", "settings": "cited from earlier work"}, "[3]": {"tested_on": "liver tissue of rats", "settings": "exogenous L-ergothioneine; cited from earlier work"}}, "data": [{"molecule": "C[N+](C)(C)[C@@H](Cc1c[nH]c(=S)[nH]1)C(=O)[O-]", "note": "[ergothioneine, L-ergothioneine]", "values": [{"measurement": "sperm cell survival", "setting": "[1]", "value": "significant improvement"}, {"measurement": "surviving cell motility", "setting": "[1]", "value": "significant improvement"}, {"measurement": "LPO formation", "setting": "[2]", "value": "inhibited LPO formation"}, {"measurement": "decomposition of existing LPO", "setting": "[2]", "value": "enhanced the decomposition of existing LPO"}, {"measurement": "lipid peroxidation by toxic compounds", "setting": "[3]", "value": "prevent lipid peroxidation"}]}]}
